Test results: US11396505B2, “Inhibitors of CaMKK2 and uses of same” (New York University, priority 2019, dated 2022)

Legend:
[1] = cited from earlier work
[2] = cited from earlier work; remark: listed apart in the source
[3] = target: T1, ArH receptor (Homo sapiens, UniProt P35869); conditions: cited from earlier work
T1 sequence (P35869 11-848): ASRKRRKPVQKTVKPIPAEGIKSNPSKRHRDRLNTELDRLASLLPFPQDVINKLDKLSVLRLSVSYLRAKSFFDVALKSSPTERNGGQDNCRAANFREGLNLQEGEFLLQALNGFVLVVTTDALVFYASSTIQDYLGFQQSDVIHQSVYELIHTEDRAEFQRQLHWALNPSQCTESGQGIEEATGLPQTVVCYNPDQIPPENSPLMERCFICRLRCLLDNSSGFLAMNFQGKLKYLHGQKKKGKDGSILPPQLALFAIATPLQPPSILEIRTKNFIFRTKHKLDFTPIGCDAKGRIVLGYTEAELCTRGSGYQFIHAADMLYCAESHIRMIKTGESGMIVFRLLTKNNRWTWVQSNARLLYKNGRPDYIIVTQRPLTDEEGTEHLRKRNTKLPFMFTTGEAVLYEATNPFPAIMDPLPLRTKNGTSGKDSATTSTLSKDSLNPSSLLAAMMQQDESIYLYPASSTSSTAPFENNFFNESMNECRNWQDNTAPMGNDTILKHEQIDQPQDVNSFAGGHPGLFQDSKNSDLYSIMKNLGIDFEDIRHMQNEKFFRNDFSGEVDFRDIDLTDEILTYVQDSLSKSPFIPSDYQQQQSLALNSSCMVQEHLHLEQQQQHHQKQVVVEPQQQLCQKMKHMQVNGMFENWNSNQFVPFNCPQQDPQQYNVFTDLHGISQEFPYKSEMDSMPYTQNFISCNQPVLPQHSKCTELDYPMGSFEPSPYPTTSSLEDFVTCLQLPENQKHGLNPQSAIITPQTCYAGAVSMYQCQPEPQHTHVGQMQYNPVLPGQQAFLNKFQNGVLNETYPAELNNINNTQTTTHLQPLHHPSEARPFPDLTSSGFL

[4] = target: T2, CaMKK2 (Homo sapiens, UniProt Q96RR4); assay: CaMKK1/2 biochemical assay, 32P radiometric kinase assay (CaMKK2)
[5] = target: T2, CaMKK2; assay: as above; conditions: for inhibition at 0.2 µM: 0.2 μM compound, read-out: CaMKK2 % inhibition @ concentrations shown, 0.2 μM; for inhibition at 0.5 µM: 0.5 μM compound, read-out: CaMKK2 % inhibition @ concentrations shown, 0.5 μM; for inhibition at 10 µM: 10 μM compound, read-out: CaMKK2 % inhibition @ concentrations shown, 10 μM
Experimental: (§1) The following is an example of a CaMKK1/2-biochemical assay. Compounds were tested for CaMKK1/2 inhibition using a ^32P radiometric kinase assay as follows: A freshly prepared kinase reaction buffer (20 mM Hepes (pH 7.5), 10 mM MgCl2, 1 mM EGTA, 0.02% Brij35, 0.02 mg/ml BSA, 0.1 mM Na3VO4, 2 mM DTT, 1% DMSO) was treated with Myelin Basic Protein (final concentration=20 μM), CaCl2) (final concentration=1.5 mM), Calmodulin (final concentration=0.96 μM) and either CaMKK2 (final reaction concentration=120 nM) or CaMKK1 (final reaction concentration=150 nM) and gently mixed. Compounds were added as aliquots from 10 mM DMSO stock solutions such that the final compound concentration in the assay was either 10 μM, 0.5 μM or 0.2 μM. This mixture was allowed to incubate for 20 minutes at room temperature. ^32P-ATP (specific activity 10 μCi/μL) was added and the mixture was allowed to incubate for 2 hours at room temperature. The reaction mixture was spotted onto P81 ion exchange paper. The kinase activity was detected by the filter binding method.

[6] = target: CaMKK1 (Homo sapiens, UniProt Q8N5S9); assay: CaMKK1/2 biochemical assay, 32P radiometric kinase assay (CaMKK1)
Experimental: as §1

[7] = despite achieving high plasma concentrations; cited from earlier work

| SMILES | inhibition at 0.2 µM [5] [%] | Biochemical Data CaMKK2, inh @ 0.5 μM [5] [% inh @ 0.5 μM] | inhibition at 0.5 µM [5] [%] | Biochemical Data CaMKK1, inh @ 0.5 μM [6] [% inh @ 0.5 μM] | also measured |
| --- | --- | --- | --- | --- | --- |
| O=C(O)c1ccc2c3c1cccc3c(=O)n1c3ccccc3nc21 [STO-609] |  |  |  |  | permeability [1]: poor permeability; brain entry ([2]; 9.4 mg/kg ip dose): fails to enter the brain; plasma concentrations ([2]; 9.4 mg/kg ip dose): > 30 µM; tissue Cmax values ([2]; tissue penetration, 9.4 mg/kg ip): ≤ 1 µM; elimination completed in ([2]; tissues): ≤ 8 h (h); agonist of the ArH receptor [3]: 43 nM |
| COc1ccc(/C=C/c2n[nH]c3ccc(N4CCOC4=O)cc23)cc1 [Example 31, (E)-3-(3-(4-methoxystyryl)-1H-indazol-5-yl)oxazolidin-2-one] | 81 |  |  |  | IC50 [4]: 33 nM; IC50 [6]: 536 nM |
| O=C1OCCN1c1ccc2[nH]nc(C#Cc3ccccn3)c2c1 [Example 12, 3-(3-(pyridin-2-ylethynyl)-1H-indazol-5-yl)oxazolidin-2-one] |  | 52 | 52 | 14 |  |
| O=C1OCCN1c1ccc2[nH]nc(-c3ccc[nH]3)c2c1 [Example 22, 3-(3-(1H-pyrrol-2-yl)-1H-indazol-5-yl)oxazolidin-2-one] | 37 |  |  |  | Biochemical Data CaMKK2, inh @ 0.2 μM [5]: 37% inh @ 0.2 μM; Biochemical Data CaMKK1, inh @ 0.2 μM [6]: <5% inh @ 0.2 μM |
| O=C1OCCN1c1ccc2[nH]nc(-c3ccncc3)c2c1 [Example 13, 3-(3-(pyridin-4-yl)-1H-indazol-5-yl)oxazolidin-2-one] |  | 33 | 33 | 7 |  |
| O=C1OCCN1c1ccc2[nH]nc(-c3cc4ccccc4o3)c2c1 [Example 2, 3-(3-(Benzofuran-2-yl)-1H-indazol-5-yl)oxazolidin-2-one] |  |  |  |  | inhibition at 10 µM [5]: 98%; IC50 [6]: 164 nM |
| O=C1OCCN1c1ccc2[nH]nc(-c3ccccc3)c2c1 [Example 6, 3-(3-phenyl-1H-indazol-5-yl)oxazolidin-2-one] |  | 37 | 37 | <5 |  |
| O=C1OCCN1c1ccc2[nH]nc(-c3cccnc3)c2c1 [Example 7, 3-(3-(pyridin-3-yl)-1H-indazol-5-yl)oxazolidin-2-one] |  | 29 | 29 | <5 |  |
| COc1cccc2cc(-c3nc([C@H]4CC[C@H](C(=O)O)CC4)n4ncnc(N)c34)[nH]c12 [OSI-027] |  |  |  |  | tissue and tumor penetration [7]: poor tissue and tumor penetration |
| O=C1OCCN1c1ccc2[nH]nc(-c3cccc(-c4ccccc4)c3)c2c1 [Example 26, 3-(3-([1,1′-biphenyl]-3-yl)-1H-indazol-5-yl)oxazolidin-2-one] | 36 |  |  |  | Biochemical Data CaMKK2, inh @ 0.2 μM [5]: 36% inh @ 0.2 μM; Biochemical Data CaMKK1, inh @ 0.2 μM [6]: <5% inh @ 0.2 μM |
| O=C1OCCN1c1ccc2[nH]nc(-c3cccc4ccccc34)c2c1 [CL-666] |  |  |  |  | Biochemical Data CaMKK2, inh @ 0.2 μM [5]: 15% inh @ 0.2 μM; Biochemical Data CaMKK1, inh @ 0.2 μM [6]: <5% inh @ 0.2 μM |
| O=C1OCCN1c1ccc2[nH]nc(-c3ccc4cc[nH]c4c3)c2c1 [CL-669] |  |  |  |  | Biochemical Data CaMKK2, inh @ 0.2 μM [5]: 55% inh @ 0.2 μM; Biochemical Data CaMKK1, inh @ 0.2 μM [6]: <5% inh @ 0.2 μM |
| O=C1OCCN1c1ccc2[nH]nc(/C=C/c3ccccn3)c2c1 [Example 4, (E)-3-(3-(2-(pyridin-2-yl)vinyl)-1H-indazol-5-yl)oxazolidin-2-one] | 55 |  | 81 |  | IC50 [4]: 190 nM; inhibition at 10 µM [5]: 98% |
| CCOC(=O)c1n[nH]c2ccc(N3CCOC3=O)cc12 [CL-629] |  | 20 |  | <5 |  |
| C=Cc1n[nH]c2ccc(N3CCOC3=O)cc12 [Example 8, 3-(3-vinyl-1H-indazol-5-yl)oxazolidin-2-one] |  | 26 | 26 | 12 |  |
| O=C1OCCCN1c1ccc2[nH]nc(-c3cc4ccccc4[nH]3)c2c1 [Example 40, 3-(3-(1H-indol-2-yl)-1H-indazol-5-yl)-1,3-oxazinan-2-one] | 37 |  |  |  | Biochemical Data CaMKK2, inh @ 0.2 μM [5]: 37% inh @ 0.2 μM; Biochemical Data CaMKK1, inh @ 0.2 μM [6]: <5% inh @ 0.2 μM |
| O=C(O)c1n[nH]c2ccc(N3CCOC3=O)cc12 [CL-628] |  | 22 |  | <5 |  |
| O=C1OCCN1c1ccc2[nH]nc(-c3cc4ccccc4[nH]3)c2c1 [Example 3, 3-(3-(1H-indol-2-yl)-1H-indazol-5-yl)oxazolidin-2-one] | 80 |  | 94 |  | IC50 [4]: 70 nM; inhibition at 10 µM [5]: 100%; IC50 [6]: 141 nM |
